Read-outs that look alike come from different tables or passages of the source.
Tests used:
rats [1] = assay type: in vivo, rat; settings: rats of the MAP/HR figures, 2×ED50, tail vein
rats [2] = assay type: in vivo, rat; settings: for recovery time of the test animals' righting reflex: rats of the MAP/HR figures, 2×ED50, tail vein, same value in min
Experimental: The Effects of the Compounds on the Circulatory Function were Measured in Rats Using a Small Animal Implanted Physiological Signal Telemetry System
The anesthetic activity of the compounds was assessed in rats using a LORR assay and the up and down method was used to determine ED50. […] A small animal implantable physiological signal telemetry system from DSI (Data Science International, Inc.) was used to measure the changes in heart rate (HR) and blood pressure in rats during 30 min after administration. Then mean arterial pressure (MAP) and HR were used as representative indicators to determine hemodynamic stability of the compounds of the present invention in rats.
A small animal implantable physiological signal telemetry system from DSI (Data Science International, Inc.) including implants (RATHD-521, DSI, United States), receiver boards (RPC-1, DSI, United States), signal conversion devices (DEM, DSI, USA), perfusion glue (DSI, USA), fibrin membrane (DSI, USA), etc.
First, animal models were established. A left ventricular catheter, an abdominal aortic catheter and ECG wires were placed into rats. At least one week after surgery, data were recorded.
Administration procedure: rats were put into a restraint device with a 20 G indwelling catheter placed into a lateral tail vein. After administration of 0.2 mL heparin, a pre-filled extension tube was attached and taped to the tail vein to secure the extension tube. Then the rats were removed from the restraint device to a cage before placing them together on the signal receiver. […] Finally, the pharmacological effects, adverse reactions, and behavioural manifestations of the rats were observed and recorded
Data collection: After setting the data collection parameters on the software, the power of the implant was turned on to start data collection. In this experiment, data recording frequency was set to 15 s. Data collection was continuously recorded for 30 min before and after administration of the drugs in rats. After data acquisition, the test was stopped.

[3] = test system: secretion of corticosterone, H295R cell line; assay: cells; assay type: cell-based; settings: for EC50: Homo sapiens, NCI-H295R, read-out: EC50 (Corticosterone)
Experimental: (§1) The Effects of the Compounds on Adrenocortical Function In Vitro Test
(§2) Then secretion of the cortisol and corticosterone in the supernatant, was measured using HPLC-MS/MS method to determine whether the compounds of the present invention had adrenotoxic potential.

[4] = test system: secretion of cortisol, H295R cell line; assay: cells; assay type: cell-based; settings: for EC50: Homo sapiens, NCI-H295R, read-out: EC50 (Cortisol)
Experimental: as §1, §2

rats [5] = settings: for Recovery time after stopping infusion: after 1 hour infusion at 2×MIR; for Adverse reactions: Tremor (incidence): continuous infusion 2×MIR; for Onset time: emulsion, continuous infusion at 2×MIR
Experimental: Pharmacological Effects of the Compounds on Continuous Infusion in Rats
Adult male Sprague-Dawley rats with body weight ranging from 250 to 300 gm were selected for continuous infusion test. […] Time to recovery of righting reflex from stopping infusion, and time to fully awake from stopping infusion were recorded.

[6] = H295R cell line, 0.1-10000 nM, HPLC-MS/MS, Table E3
[7] = H295R cell line, 0.1-10000 nM, HPLC-MS/MS, Table D3

Compound | recovery time of the test animals' righting reflex (rats [1]) | recovery time of the test animals' righting reflex (rats [2]) | EC50 [3] | EC50 [4] | also measured
CC(=O)C(C)(C)OC(=O)c1cncn1[C@H](C)c1ccccc1 [Compound C8] | 170 s | 2.83 min |  |  | 
COCC1(COC(=O)c2c(Cl)ncn2[C@H](C)c2ccccc2)CCC1 [Compound E102] | 288 s | 4.80 min | > 10 µM | > 10 µM | Corticosterone as an indicator to determine the presence of inhibition [3, 6]: 0; Cortisol as an indicator to determine the presence of inhibition [4, 6]: 0
CC(=O)CCSC(=O)c1cncn1[C@H](C)c1ccccc1 [Compound C23] | 206 s | 3.43 min |  |  | 
CC(=O)C(C)(C)SC(=O)c1cncn1[C@H](C)c1ccccc1 [Compound C22] | 93 s | 1.55 min |  |  | 
C=CCC1(OC(=O)c2cncn2[C@H](C)c2ccccc2)COC1 [Compound D41] | 355 s | 5.92 min | > 10 µM | > 10 µM | Corticosterone as an indicator to determine the presence of inhibition [3, 7]: 0; Cortisol as an indicator to determine the presence of inhibition [4, 7]: 0
C[C@H](c1ccccc1)n1cncc1C(=O)OCC1CC1 [Compound A15] | 193 s | 3.22 min |  |  | Recovery time after stopping infusion (rats [5]): 12 to 15 min; Adverse reactions: Tremor (incidence) (rats [5]): Tremor (5/6); Onset time (rats [5]): 2 to 3 min
CC(=O)COC(=O)c1cncn1[C@H](C)c1ccccc1 [Compound C6] | 120 s | 2.0 min |  |  | 
CC(C)c1cccc(C(C)C)c1O [propofol, reference compound] | 645 s | 10.75 min |  |  | effect on the circulatory function (MAP, HR) (rats [2]; rats, 2×ED50, 30 min after administration): significant inhibition of the circulatory function
C[C@H](c1ccccc1)n1cncc1C(=O)OC[S+](C)[O-] (stereo partly drawn) [Compound C9] |  |  | > 10 µM | > 10 µM | Corticosterone as an indicator to determine the presence of inhibition ([3]; H295R, Table C3): 0; Cortisol as an indicator to determine the presence of inhibition ([4]; H295R, Table C3): 0
CC(=O)C1(OC(=O)c2cncn2[C@H](C)c2ccccc2)CCC1 [Compound C2] | 182 s | 3.03 min |  |  | 
C=CC1(OC(=O)c2cncn2[C@H](C)c2ccccc2)CCCCC1 [Compound D35] | 200 s | 3.33 min | > 1 µM | > 1 µM | Corticosterone as an indicator to determine the presence of inhibition [3, 7]: 0; Cortisol as an indicator to determine the presence of inhibition [4, 7]: 0
CC(=O)C1(COC(=O)c2cncn2[C@H](C)c2ccccc2)COC1 [Compound C5] |  |  | > 1 µM | > 1 µM | Corticosterone as an indicator to determine the presence of inhibition ([3]; H295R, Table C3): 0; Cortisol as an indicator to determine the presence of inhibition ([4]; H295R, Table C3): 0
C[C@H](c1ccccc1)n1cncc1C(=O)OCC1(CO)CC1 [Compound A7] | 110 s | 1.83 min |  |  | Recovery time after stopping infusion (rats [5]): 7 to 9 min; Adverse reactions: Tremor (incidence) (rats [5]): Tremor (4/6); Onset time (rats [5]): 2 to 3 min
CC(=O)C1(COC(=O)c2cncn2[C@H](C)c2ccccc2)CC1 [Compound C4] |  |  | > 1 µM | > 1 µM | Corticosterone as an indicator to determine the presence of inhibition ([3]; H295R, Table C3): 0; Cortisol as an indicator to determine the presence of inhibition ([4]; H295R, Table C3): 0
CC(=O)C1(COC(=O)c2cncn2[C@H](C)c2ccccc2)CCC1 [Compound C11] |  |  | > 1 µM | > 1 µM | Corticosterone as an indicator to determine the presence of inhibition ([3]; H295R, Table C3): 0; Cortisol as an indicator to determine the presence of inhibition ([4]; H295R, Table C3): 0
C/C(OC(=O)c1c(Cl)nc(Cl)n1[C@H](C)c1ccccc1)=C1\CCCC1=O [Compound E146] | 201 s | 3.35 min | > 10 µM | > 10 µM | Corticosterone as an indicator to determine the presence of inhibition [3, 6]: 0; Cortisol as an indicator to determine the presence of inhibition [4, 6]: 0
C[C@H](c1ccccc1)n1cncc1C(=O)OC(C)(C)C1OC1(C)C (stereo partly drawn) [Compound B25] |  |  |  | > 1 µM | Corticosterone as an indicator to determine the presence of inhibition ([3]; H295R, Table B3): 0; Cortisol as an indicator to determine the presence of inhibition ([4]; H295R, Table B3): 0
CC(=O)CC(C)(C)OC(=O)c1cncn1[C@H](C)c1ccccc1 [Compound C13] |  |  | > 10 µM | > 10 µM | Corticosterone as an indicator to determine the presence of inhibition ([3]; H295R, Table C3): 0; Cortisol as an indicator to determine the presence of inhibition ([4]; H295R, Table C3): 0
C=CC#CC(C)OC(=O)c1c(Cl)ncn1[C@H](C)c1ccccc1 (stereo partly drawn) [Compound E121] | 184 s | 3.07 min |  |  | 
C[C@H](c1ccccc1)n1cncc1C(=O)SC1CCC1 [Compound A29] | 255 s | 4.25 min |  |  | 
COCC1(CSC(=O)c2cncn2[C@H](C)c2ccccc2)CCC1 [Compound A28] | 435 s | 7.25 min | > 1 µM | > 1 µM | Corticosterone as an indicator to determine the presence of inhibition ([3]; H295R, Table A3): 0; Cortisol as an indicator to determine the presence of inhibition ([4]; H295R, Table A3): 0
CC(=O)C(C)(C)OC(=O)c1c(C(F)(F)F)ncn1[C@H](C)c1ccccc1 [Compound E160] | 65 s | 1.08 min | > 10 µM | > 10 µM | Corticosterone as an indicator to determine the presence of inhibition [3, 6]: 0; Cortisol as an indicator to determine the presence of inhibition [4, 6]: 0
CSCC1(CSC(=O)c2cncn2[C@H](C)c2ccccc2)CCC1 [Compound A46] |  |  | > 0.1 µM | > 0.1 µM | Corticosterone as an indicator to determine the presence of inhibition ([3]; H295R, Table A3): 0; Cortisol as an indicator to determine the presence of inhibition ([4]; H295R, Table A3): 0
C[C@H](c1ccccc1)n1cncc1C(=O)OCC1(C=O)COC1 [Compound C12] |  |  | > 1 µM | > 1 µM | Corticosterone as an indicator to determine the presence of inhibition ([3]; H295R, Table C3): 0; Cortisol as an indicator to determine the presence of inhibition ([4]; H295R, Table C3): 0
C[C@H](c1ccccc1)n1cncc1C(=O)SCC1CC(F)(F)C1 [Compound A45] | 200 s | 3.33 min |  |  | 
C[C@H](c1ccccc1)n1cnc(F)c1C(=O)OC1(C=C=S)CCCCC1 [Compound E23] | 92 s | 1.53 min |  |  | 
C/C=C/C1(OC(=O)c2cncn2[C@H](C)c2ccccc2)CCC1 [Compound D20] |  |  | > 10 µM | > 10 µM | Corticosterone as an indicator to determine the presence of inhibition [3, 7]: 0; Cortisol as an indicator to determine the presence of inhibition [4, 7]: 0
C[C@H](c1ccccc1)n1cncc1C(=O)OCC[S+](C)[O-] (stereo partly drawn) [Compound C10] |  |  | > 10 µM | > 10 µM | Corticosterone as an indicator to determine the presence of inhibition ([3]; H295R, Table C3): 0; Cortisol as an indicator to determine the presence of inhibition ([4]; H295R, Table C3): 0
C[C@H](c1ccccc1)n1cncc1C(=O)SCC1CCC1 [Compound A27] | 126 s | 2.10 min |  |  | 

From patent US11434205B2, “Substituted imidazole carboxylate derivatives and the use thereof” (priority 2018, dated 2022)
